From patent US20100048523A1, “Compounds, Compositions and Methods for Treating Hormone-Dependent Maladies” (priority 2006, published 2010)

What was measured:
[1] = tested on: p21−/− MCF-10A breast cancer cell lines; test: High-throughput cell-based growth inhibition screen, p21 knock-out (Erik) vs parental (Erin) cell lines; parameters: species or system human
[2] = tested on: MCF-10A cells stably overexpressing ERα; test: Growth assay (crystal violet) of ERα positive MCF-10A cells; format: cell-based, human; conditions: for effect on estrogen-induced proliferation: ERα positive MCF-10A (p21+/+), with estrogen
Method: (§1) ERα positive MCF-10A (ERIN#9), pIRESpuro2 transfection control (−) control, and ERα positive MCF-10A p21−/− (1.6#4) cell lines were seeded in assay media (no EGF) and exposed to estrogen (E2), vehicle only, estrogen and Tamoxifen (E2+Tam), estrogen and Faslodex (E2+ICI), Tamoxifen alone (Tam) and Faslodex alone (ICI). Cells were grown for 1 week and stained with crystal violet. Results are representative of multiple clones including heterozygous controls, and assays were repeated three times for each clone.
(§2) The creation of a non-tumorigenic human breast epithelial cell line (MCF-10A) in which the p21 gene was deleted through targeted homologous recombination has been previously described. Because p21 has been implicated in Tamoxifen resistance, and the response of Tamoxifen in both parental MCF-10A cells and their p21−/− derivatives was assessed. MCF-10A cells are ERα negative and unresponsive to estrogen stimulation. In order to develop a model system to analyze the effects of estrogen and anti-estrogen signaling, MCF-10A cells and their p21−/− derivatives were stably transfected with a cDNA encoding for wild type ERα.
(§3) Unlike previous attempts to stably integrate ERα into the MCF-10A cell line, a cloning vector containing an internal ribosome entry site (IRES) was used to ensure high levels of wild type ERα expression. The full coding sequence of wild type ERα was PCR cloned into pIRESpuro2 (Clontech) and the absence of any coding mutations was verified by direct sequencing.
(§4) Cell lines were generated and grown with charcoal stripped dextran treated serum (Hyclone) and phenol red free medium to avoid any possible growth effects of estrogen in the medium.

[3] = tested on: MCF-10A p21 knock out cell lines (ERα positive); test: Growth assay (crystal violet) of ERα positive MCF-10A p21−/− cells; format: cell-based, human; conditions: for growth (cell proliferation) in response to the substance: ERα positive MCF-10A p21−/− (p21 null)
Method: as §1, §2, §3, §4

[4] = tested on: ER/PR positive breast cancers; conditions: adjuvant setting; cited from earlier work
[5] = tested on: metastatic breast cancer (skin); test: Case report: metastatic breast cancer (skin) nodule under Tamoxifen; format: in vivo, human

| Compound | targeting of tamoxifen resistant ER positive cells [1] | effect on estrogen-induced proliferation [2] | growth (cell proliferation) in response to the substance [3] | further results |
| --- | --- | --- | --- | --- |
| CC12CCC3c4ccc(O)cc4CCC3C1CCC21OCCO1 (stereo not shown) [Compound 233-D4] | target tamoxifen resistant ER positive cells | – | – | – |
| CC(=O)Oc1ccc2c(c1)CCC1C2CC[C@@]2(C)C1CCC21OCCO1 (stereo partly shown) [Compound 233-E09] | target tamoxifen resistant ER positive cells | – | – | – |
| C[C@]12CC[C@@H]3c4ccc(O)cc4C[C@@H](CCCCCCCCC[S+]([O-])CCCC(F)(F)C(F)(F)F)[C@H]3[C@@H]1CC[C@@H]2O (stereo partly shown) [Faslodex, fulvestrant] | – | inhibited | – | effect on proliferative effects of estrogen ([3]; p21−/− cell lines, with estrogen): could still inhibit |
| O=C(c1ccc(OCCN2CCCCC2)cc1)c1c(-c2ccc(O)cc2)sc2cc(O)ccc12 [Raloxifene] | – | behaved identically to Tamoxifen | not as pronounced as Tamoxifen's | – |
| CC/C(=C(\c1ccccc1)c1ccc(OCCN(C)C)cc1)c1ccccc1 [Tamoxifen] | – | inhibited | grew in response | reduction of the risk of recurrence [4]: ≤ 47%; growth inhibitory effect on p21 knock out cells ([3]; ERα positive MCF-10A p21−/−): resistant to the growth inhibitory effects; behaviour of recurrent skin nodule during Tamoxifen ([5]; 2003, in the presence of Tamoxifen): growing in the presence of Tamoxifen; behaviour of skin nodule after Tamoxifen cessation ([5]; one month after Tamoxifen cessation): went away after cessation |
| estrogen | – | – | – | proliferation in response to the substance ([2]; ERα positive MCF-10A, assay media without EGF, 1 week): proliferated in response to estrogen |
